The record followed here is patent US20240172752A1, “7-OXA-3,4-DIAZABICYCLO[4.1.0]HEPT-4-EN-2-ONE COMPOUND AND HERBICIDE” (Nippon Soda Co., Ltd., priority 2021, published 2024).

The structures appear in SMILES notation.

The test system of one data set is Abutilon theophrasti. In words: Soil treatment herbicidal test, weed killing rate, Abutilon theophrasti. It counts as in vivo. The note with it: 672 h, 250 g per hectare, after 4 weeks, read-out: herbicidal activity (weed killing rate) with respect to Abutilon theophrasti. The protocol:
(§1) POA allylphenyl ether (4.1 parts by weight), POE-POP glycol (1 part by weight), POE sorbitan laurate (0.8 parts by weight), glycerin (2.6 parts by weight), dimethylformamide (65.9 parts by weight), N-methylpyrrolidone (5.1 parts by weight), cyclohexanone (15.4 parts by weight), and aromatic hydrocarbons (5.1 parts by weight) were mixed and dissolved to prepare an emulsion. The compound of the present invention (4 mg) was dissolved in this emulsion (100 μL) to prepare a test emulsion. POA means “polyoxyalkylene”, POE means “polyoxyethylene”, and POP means “polyoxypropylene”.
(§2) A 70 cm^2 pot was filled with soil, and seeds of Digitaria ciliaris, Setaria faberi, Abutilon theophrasti and Amaranthus blitum were sown into the surface layer which was covered lightly with soil. The next day, the above test emulsion was diluted so as to achieve a predetermined amount of active ingredient and sprayed on the soil surface with a small sprayer at a spray water volume of 2,860 L per hectare.
(§3) After 4 weeks, the above ground weights of weeds in the untreated and treated areas were measured for each weed, and the weed killing rate was calculated by the following calculation formula.
(§4) Weed killing rate (%)=[(above ground weight of weeds in untreated area)−(above ground weight of weeds in treated area)/(above ground weight of weeds in untreated area)]×100

The test system of the next data set is Amaranthus blitum. In words: Soil treatment herbicidal test, weed killing rate, Amaranthus blitum. It is filed as in vivo. The note with it: 672 h, 250 g per hectare, after 4 weeks, read-out: herbicidal activity (weed killing rate) with respect to Amaranthus blitum. The protocol:
as §1, §2, §3, §4

With `COC12OC1(c1ccc(C(F)(F)F)nc1S(C)(=O)=O)C=NN(C)C2=O` (centres unmarked) [Compound A-1], the pest or weed control at 250 g/ha with Abutilon theophrasti and with Amaranthus blitum was ≥ 80% throughout.
With `COC12OC1(c1ncc(Cl)cc1S(C)(=O)=O)C=NN(C)C2=O` (centres unmarked) [Compound A-2], the pest or weed control at 250 g/ha in the data set with Abutilon theophrasti was ≥ 80%.
`COC12OC1(c1ccc(C(F)(F)F)nc1S(=O)(=O)N1CCOCC1)C=NN(C)C2=O` (centres unmarked) [Compound A-4]: the pest or weed control at 250 g/ha in the data set on Abutilon theophrasti and in the data set with Amaranthus blitum was ≥ 80% in each case.
For `COCCOCc1nc(C(F)(F)F)ccc1C12C=NN(C)C(=O)C1(OC)O2` (centres unmarked) [Compound A-5], the pest or weed control at 250 g/ha with Abutilon theophrasti and in the data set on Amaranthus blitum was ≥ 80% throughout.
As to `COC12OC1(c1ncc(C(F)(F)F)cc1S(C)(=O)=O)C=NN(C)C2=O` (centres unmarked) [Compound A-6], the pest or weed control at 250 g/ha in the data set on Abutilon theophrasti and in the data set with Amaranthus blitum was ≥ 80% throughout.
In the case of `COC12OC1(c1cc3cccnc3nc1C(F)(F)F)C=NN(C)C2=O` (centres unmarked) [Compound A-7], the melting point lay within 203 to 210 °C. Further, in the data set with Abutilon theophrasti, the pest or weed control at 250 g/ha was ≥ 80%. Further, the pest or weed control at 250 g/ha in the data set with Amaranthus blitum was ≥ 80%.
On to `COC12OC1(c1cnc(C(F)(F)F)cc1S(C)(=O)=O)C=NN(C)C2=O` (centres unmarked) [Compound A-8], for which the pest or weed control at 250 g/ha with Abutilon theophrasti and with Amaranthus blitum was ≥ 80% in each case.
In turn, `COC12OC1(c1cc3cccnc3c(Cl)c1C(F)(F)F)C=NN(C)C2=O` (centres unmarked) [Compound A-9] returned a melting point of 238 to 239 °C.
The same measure, in the same setting: the figure for `COC12OC1(c1nn(C)c(=O)n(-c3ccc(F)cc3)c1=O)C=NN(C)C2=O` (centres unmarked) [Compound A-10] is 180 to 182 °C.
Same read-out and setting: under `COC12OC1(c1ccc(C(F)(F)F)n(C)c1=O)C=NN(C)C2=O` (centres unmarked) [Compound A-11] stands 128 to 130 °C.
Still for that read-out and setting: under `COC12OC1(c1cn(C)c(=O)n(-c3ccc(F)cc3)c1=O)C=NN(C)C2=O` (centres unmarked) [Compound A-17] stands 191 to 194 °C; under `COC12OC1(c1cc3ccncc3n(-c3ccc(F)cc3)c1=O)C=NN(C)C2=O` (centres unmarked) [Compound A-18], 175 to 179 °C.
`COC12OC1(c1nn(C)c(=O)c(C)c1Cl)C=NN(C)C2=O` (centres unmarked) [Compound A-23] showed a melting point of 153 to 155 °C. Further, in the data set with Abutilon theophrasti, the pest or weed control at 250 g/ha was ≥ 80%.
`COC12OC1(c1ccc(C(F)(F)F)c3ncccc13)C=NN(C)C2=O` (centres unmarked) [Compound A-24] came in with a melting point of 171 to 172 °C. Also, the pest or weed control at 250 g/ha in the data set with Abutilon theophrasti is ≥ 80%. The pest or weed control at 250 g/ha with Amaranthus blitum is ≥ 80%.
As for `COC12OC1(c1cc(C(F)(F)F)nn1CS(C)(=O)=O)C=NN(C)C2=O` (centres unmarked) [Compound A-25], the pest or weed control at 250 g/ha with Abutilon theophrasti and with Amaranthus blitum was ≥ 80% throughout.
